Where two headings read alike, the source gives them in different places. Ends that are not written are not given here.
Assay: Clinical test in humans, single 30-min i.v. infusion, plasma PK
Format: in vivo
Conditions: human; for AUC(0-inf) / Cmax / Vd / clearance / AUC(0-t) / half-life / Tmax: in vivo, iv
Method: A total of 8 healthy subjects were included in each group. Group 1 received 25 μg/kg of Peptide 1, Group 2 received 50 μg/kg of Peptide 1, Group 3 received 100 μg/kg of Peptide 1, Group 4 received 150 μg/kg of Peptide 1, Group 5 received 200 μg/kg of Peptide 1 and Group 7 received 400 μg/kg of Peptide 1.
The tested liquid pharmaceutical composition has a pH of 8.2-8.4, and comprises the following: • i) 5 mg/ml of Peptide 1, • ii) 4% (w/w) mannitol, • iii) 1% (w/w) sucrose, • iv) 0.01% (w/w) Polysorbate-80, • v) 10 mM glycyl-glycine, and • vi) sterile water for injection.
In these groups, 6 subjects received the active treatment (i.e. a single Peptide 1 30-min intravenous (i.v.) infusion corresponding to the above doses) and 2 received the placebo. In order to prevent any anticipated unblinding, the subjects under active treatment were recorded by the bioanalytical laboratory.
Blood samples were collected for PK purpose for Peptide 1 determinations on Day 1 at the following time points: pre-dose, then, 10 min, 20 min, 30 min (30 min=0.5), 0.75, 1.0, 1.5, 2.0, 2.5, 3.0, 4.0, 6.0, 8.0, 12.0, 16.0 and 24.0 h after the infusion start.
Venous whole blood samples were collected from all subjects.
Plasma samples were analyzed for Peptide 1 using validated Liquid chromatography—Tandem Mass spectrometry (LC-MS/MS) methods by Charles River Laboratories (CRL).
Derivation of PK parameters were carried out by PhinC Development using Phoenix WinNonlin® (Version Phoenix 8.1—Certara—Princeton—USA). A non-compartmental analysis (NCA) approach was chosen.
For the calculation of the PK parameters and characteristics the following rules were applied: • All the plasma concentrations validated by the bioanalytical laboratory and provided to the pharmacokineticist were used for the PK analysis. • The theoretical PK blood sampling time points were used. • At time points in the lag-time between time zero and the first concentration equal or above limit of quantification (LOQ), concentrations below the LOQ (BLQ) were set to zero (0). • Concentrations BLQ between 2 concentrations equal or above LOQ were considered as missing. • Trailing concentrations (at time point between time of last measurable concentrations and time of last blood sample) BLQ were not used in calculations. • For concentration above the upper limit of quantification and reported as above limit of quantification (ALQ) in the final plasma concentration tables, ALQ was considered as missing for the PK analysis. • Not reported (NR) concentration was excluded from the PK analysis. • For the first administration, if pre-dose concentration was less than or equal to 5% of Cmax value in a PK profile, the subject's data was included in all PK measurements and calculations without any adjustments. If the pre-dose value was greater than 5% of Cmax, the subject was dropped from all statistical evaluations.
The following PK parameters of Peptide 1, were derived for each subject receiving the active treatment on Day 1: • Cmax: The observed maximum concentration in plasma measured in a subject after dosing identified by inspection of the plasma drug concentration versus (vs.) time data by WinNonlin®. • tmax: The time at which Cmax was apparent, identified by inspection of the plasma drug concentration vs. time data by Phoenix WinNonlin®. • AUC0-24: The area under the concentration-time curve from time zero (pre-dose) to 24 h was calculated using a linear trapezoidal method. AUC0-24 was only calculated if there were at least 3 concentrations above LOQ. • AUC0-t: The area under the concentration-time curve from time zero (pre-dose) to the time of last quantifiable concentration was calculated using a linear trapezoidal method. The AUC was only calculated if there were at least 3 concentrations above LOQ. • ke: The terminal plasma elimination rate-constant was estimated from log-linear regression analysis of the terminal phase of the plasma concentration-time profile. […]

[1] = 25 ug/kg, single 30-min i.v. infusion 25 μg/kg, GM
[2] = 50 ug/kg, single 30-min i.v. infusion 50 μg/kg, mean
[3] = 100 ug/kg, single 30-min i.v. infusion 100 μg/kg, mean
[4] = 150 ug/kg, single 30-min i.v. infusion 150 μg/kg, GM
[5] = 150 ug/kg, single 30-min i.v. infusion 150 μg/kg, mean
[6] = 200 ug/kg, single 30-min i.v. infusion 200 μg/kg, GM
[7] = 400 ug/kg, single 30-min i.v. infusion 400 μg/kg, mean
[8] = single 30-min i.v. infusion 25 μg/kg, mean
[9] = single 30-min i.v. infusion 50 μg/kg, GM
[10] = single 30-min i.v. infusion 100 μg/kg, GM
[11] = single 30-min i.v. infusion 200 μg/kg, mean
[12] = single 30-min i.v. infusion 400 μg/kg, GM
[13] = single 30-min i.v. infusion 400 μg/kg, mean

- increase of exposure parameters (Cmax and AUCs) (between 100 μg/kg and 400 μg/kg (dose increased by 4-fold)): about 4.3 fold
- increase of exposure parameters (Cmax and AUCs) (between 150 μg/kg and 400 μg/kg (dose increased by 2.7-fold)): around 3.2 fold
- increase of exposure parameters (Cmax and AUCs) (between 200 μg/kg and 400 μg/kg (dose increased by 2 fold)): around 2 fold
- AUC(0-inf) [1]: 211 ng·h/mL
- Cmax [1]: 161 ng/mL
- Vd [1]: 0.13 L/kg
- clearance [1]: 2 mL/min/kg
- AUC(0-t) (25 ug/kg, single 30-min i.v. infusion 25 μg/kg, GM, read-out: AUC0-24): 211 ng·h/mL
- AUC(0-t) (25 ug/kg, single 30-min i.v. infusion 25 μg/kg, GM, read-out: AUC0-t): 130 ng·h/mL
- half-life (25 ug/kg, single 30-min i.v. infusion 25 μg/kg, GM, read-out: t1/2 (converted)): 47.4 min
- Vd (25 ug/kg, single 30-min i.v. infusion 25 μg/kg, mean): 0.14 L/kg
- AUC(0-t) (25 ug/kg, single 30-min i.v. infusion 25 μg/kg, mean, read-out: AUC0-t): 132 ng·h/mL
- AUC(0-inf) (50 ug/kg, single 30-min i.v. infusion 50 μg/kg, GM): 456 ng·h/mL
- AUC(0-t) (50 ug/kg, single 30-min i.v. infusion 50 μg/kg, GM, read-out: AUC0-24): 457 ng·h/mL
- AUC(0-t) (50 ug/kg, single 30-min i.v. infusion 50 μg/kg, GM, read-out: AUC0-t): 369 ng·h/mL
- half-life (50 ug/kg, single 30-min i.v. infusion 50 μg/kg, GM, read-out: t1/2 (converted)): 54 min
- AUC(0-inf) [2]: 464 ng·h/mL
- Cmax [2]: 375 ng/mL
- Vd [2]: 0.14 L/kg
- clearance [2]: 1.83 mL/min/kg
- AUC(0-t) (50 ug/kg, single 30-min i.v. infusion 50 μg/kg, mean, read-out: AUC0-24): 464 ng·h/mL
- AUC(0-t) (50 ug/kg, single 30-min i.v. infusion 50 μg/kg, mean, read-out: AUC0-t): 378 ng·h/mL
- half-life (50 ug/kg, single 30-min i.v. infusion 50 μg/kg, mean, read-out: t1/2 (converted)): 55.2 min
- Cmax (100 ug/kg, single 30-min i.v. infusion 100 μg/kg, GM): 899 ng/mL
- half-life (100 ug/kg, single 30-min i.v. infusion 100 μg/kg, GM, read-out: t1/2 (converted)): 67.8 min
- AUC(0-inf) [3]: 1110 ng·h/mL
- Cmax [3]: 916 ng/mL
- Vd [3]: 0.15 L/kg
- clearance [3]: 1.5 mL/min/kg
- AUC(0-t) (100 ug/kg, single 30-min i.v. infusion 100 μg/kg, mean, read-out: AUC0-24): 1110 ng·h/mL
- AUC(0-t) (100 ug/kg, single 30-min i.v. infusion 100 μg/kg, mean, read-out: AUC0-t): 1000 ng·h/mL
- half-life (100 ug/kg, single 30-min i.v. infusion 100 μg/kg, mean, read-out: t1/2 (converted)): 69 min
- AUC(0-inf) [4]: 1490 ng·h/mL
- Cmax [4]: 1250 ng/mL
- Vd [4]: 0.16 L/kg
- AUC(0-t) (150 ug/kg, single 30-min i.v. infusion 150 μg/kg, GM, read-out: AUC0-24): 1490 ng·h/mL
- AUC(0-t) (150 ug/kg, single 30-min i.v. infusion 150 μg/kg, GM, read-out: AUC0-t): 1370 ng·h/mL
- half-life (150 ug/kg, single 30-min i.v. infusion 150 μg/kg, GM, read-out: t1/2 (converted)): 67.8 min
- AUC(0-inf) [5]: 1520 ng·h/mL
- Cmax [5]: 1280 ng/mL
- Vd [5]: 0.17 L/kg
- clearance [5]: 1.67 mL/min/kg
- AUC(0-t) (150 ug/kg, single 30-min i.v. infusion 150 μg/kg, mean, read-out: AUC0-24): 1520 ng·h/mL
- AUC(0-t) (150 ug/kg, single 30-min i.v. infusion 150 μg/kg, mean, read-out: AUC0-t): 1400 ng·h/mL
- half-life (150 ug/kg, single 30-min i.v. infusion 150 μg/kg, mean, read-out: t1/2 (converted)): 69 min
- AUC(0-inf) [6]: 2280 ng·h/mL
- Cmax [6]: 1700 ng/mL
- Vd [6]: 0.18 L/kg
- clearance [6]: 1.5 mL/min/kg
- AUC(0-t) (200 ug/kg, single 30-min i.v. infusion 200 μg/kg, GM, read-out: AUC0-24): 2280 ng·h/mL
- AUC(0-t) (200 ug/kg, single 30-min i.v. infusion 200 μg/kg, GM, read-out: AUC0-t): 2120 ng·h/mL
- half-life (200 ug/kg, single 30-min i.v. infusion 200 μg/kg, GM, read-out: t1/2 (converted)): 86.4 min
- AUC(0-inf) [7]: 4870 ng·h/mL
- Vd [7]: 0.19 L/kg
- clearance [7]: 1.33 mL/min/kg
- AUC(0-t) (400 ug/kg, single 30-min i.v. infusion 400 μg/kg, mean, read-out: AUC0-24): 4870 ng·h/mL
- AUC(0-t) (400 ug/kg, single 30-min i.v. infusion 400 μg/kg, mean, read-out: AUC0-t): 4720 ng·h/mL
- half-life (400 ug/kg, single 30-min i.v. infusion 400 μg/kg, mean, read-out: t1/2 (converted)): 98.4 min
- AUC(0-inf) [8]: 211 ng·h/mL
- Cmax [8]: 162 ng/mL
- clearance [8]: 2 mL/min/kg
- AUC(0-t) (single 30-min i.v. infusion 25 μg/kg, mean, read-out: AUC0-24): 211 ng·h/mL
- half-life (single 30-min i.v. infusion 25 μg/kg, mean, read-out: t1/2 (converted)): 47.4 min
- Cmax [9]: 371 ng/mL
- Vd [9]: 0.14 L/kg
- clearance [9]: 1.83 mL/min/kg
- AUC(0-inf) [10]: 1100 ng·h/mL
- Vd [10]: 0.15 L/kg
- clearance [10]: 1.5 mL/min/kg
- AUC(0-t) (single 30-min i.v. infusion 100 μg/kg, GM, read-out: AUC0-24): 1100 ng·h/mL
- AUC(0-t) (single 30-min i.v. infusion 100 μg/kg, GM, read-out: AUC0-t): 991 ng·h/mL
- clearance (single 30-min i.v. infusion 150 μg/kg, GM): 1.67 mL/min/kg
- AUC(0-inf) [11]: 2280 ng·h/mL
- Cmax [11]: 1700 ng/mL
- Vd [11]: 0.18 L/kg
- clearance [11]: 1.5 mL/min/kg
- AUC(0-t) (single 30-min i.v. infusion 200 μg/kg, mean, read-out: AUC0-24): 2280 ng·h/mL
- AUC(0-t) (single 30-min i.v. infusion 200 μg/kg, mean, read-out: AUC0-t): 2120 ng·h/mL
- half-life (single 30-min i.v. infusion 200 μg/kg, mean, read-out: t1/2 (converted)): 87 min
- AUC(0-inf) [12]: 4840 ng·h/mL
- Cmax [12]: 3400 ng/mL
- Vd [12]: 0.19 L/kg
- clearance [12]: 1.33 mL/min/kg
- AUC(0-t) (single 30-min i.v. infusion 400 μg/kg, GM, read-out: AUC0-24): 4840 ng·h/mL
- AUC(0-t) (single 30-min i.v. infusion 400 μg/kg, GM, read-out: AUC0-t): 4690 ng·h/mL
- half-life (single 30-min i.v. infusion 400 μg/kg, GM, read-out: t1/2 (converted)): 97.2 min
- Cmax [13]: 3420 ng/mL
- Vd [13]: ~0.19 L/kg
- clearance [13]: ~1.33 mL/min/kg
- half-life (single 30-min i.v. infusion, range at all dose levels, read-out: GM t1/2): 48 to 96 min
- time of first measurable concentrations after the start of infusion (single 30-min i.v. infusion, all subjects): 0.16 h
- time up to which concentrations were measurable in all subjects after the start of infusion (single 30-min i.v. infusion, highest dose): at least 6 hours
- time up to which concentrations were measurable in all subjects after start of the infusion (single 30-min i.v. infusion, lowest dose): at least 1 hour
- Tmax [1]: 30 min
- Tmax (50 ug/kg, single 30-min i.v. infusion 50 μg/kg, median): 30 min
- Tmax (100 ug/kg, single 30-min i.v. infusion 100 μg/kg, median): 30 min
- Tmax (150 ug/kg, single 30-min i.v. infusion 150 μg/kg, median): 30 min
- Tmax [6]: 30 min
- Tmax (400 ug/kg, single 30-min i.v. infusion 400 μg/kg, median): 30 min
- Tmax (single 30-min i.v. infusion, all subjects (time of the end of infusion)): 30 min
Substance: AMVSEFLKQAWFIENEEQEYVQTLKSSKGGPGSAVSPYPTFNPSSDV-NH2 [Peptide 1]

Reference: US20250345392A1, “ANNEXIN A1 LIQUID PHARMACEUTICAL COMPOSITION” (ResoTher Pharma A/S, priority 2022, published 2025)
